Holding throughout (type): biochemical
One experiment addresses PHF8 (KDM7) (Homo sapiens, UniProt Q9UPP1). The experiment is described as follows: Histone lysine demethylase AlphaLISA assay, PHF8. Conditions: in vitro enzyme, read-out: PHF8 IC50 (HDME Inhibition). As to the method:
(§1) Histone lysine demethylase AlphaLISA assays are performed to determine IC50 values. […] Assays are performed analogously to the protocol described by PerkinElmer (Roy et al. PerkinElmer Technical Note: AlphaLISA #12, April 2011).
(§2) Assays are performed analogously to the protocol described by PerkinElmer (Roy et al. PerkinElmer Technical Note: AlphaLISA #12, April 2011).
(§3) Enzymes (final assay concentration 0.1-2.5 nM) are dissolved in enzyme buffer and incubated for 10 min before 5 μL is added to 5 μL 3% DMSO solutions of compounds in enzyme buffer, incubated for another 10 minutes, before 5 μL substrate solution is added and the reaction mixture is incubated at room temperature. 10 μL acceptor beads, suspended Epigenetic Buffer (Perkin Elmer AL008) from stock, are added and the suspension is incubated in the dark at room temperature, before 10 μL suspension of streptavidin donor beads (Perkin Elmer 6760002) in Epigenetic Buffer is added. After incubation at room temperature in the dark the plates are read.
(§4) Substrate solution: Substrate (final assay concentration 50-200 nM), 50 mM Hepes (pH 7.4-8.0), 0.003% Tween-20, 0.1% BS, 25 μM L-Asc, 10 μM α-KG. Enzyme Buffer: 50 mM Hepes (pH 7.4-8.0), 0.003% Tween-20, 0.1% BSA; 5 μM (NH4)2Fe(SO4)2
In general terms: Bead proximity is the source of the signal in Alpha formats.

The target in a further experiment is T1, KDM2B (FBXL10) (Homo sapiens, UniProt Q8NHM5).
T1 construct: 1-650; purchased BPS Bioscience, US; host or cells: Bac (baculovirus/insect cells)
T1 sequence (Q8NHM5 1-650): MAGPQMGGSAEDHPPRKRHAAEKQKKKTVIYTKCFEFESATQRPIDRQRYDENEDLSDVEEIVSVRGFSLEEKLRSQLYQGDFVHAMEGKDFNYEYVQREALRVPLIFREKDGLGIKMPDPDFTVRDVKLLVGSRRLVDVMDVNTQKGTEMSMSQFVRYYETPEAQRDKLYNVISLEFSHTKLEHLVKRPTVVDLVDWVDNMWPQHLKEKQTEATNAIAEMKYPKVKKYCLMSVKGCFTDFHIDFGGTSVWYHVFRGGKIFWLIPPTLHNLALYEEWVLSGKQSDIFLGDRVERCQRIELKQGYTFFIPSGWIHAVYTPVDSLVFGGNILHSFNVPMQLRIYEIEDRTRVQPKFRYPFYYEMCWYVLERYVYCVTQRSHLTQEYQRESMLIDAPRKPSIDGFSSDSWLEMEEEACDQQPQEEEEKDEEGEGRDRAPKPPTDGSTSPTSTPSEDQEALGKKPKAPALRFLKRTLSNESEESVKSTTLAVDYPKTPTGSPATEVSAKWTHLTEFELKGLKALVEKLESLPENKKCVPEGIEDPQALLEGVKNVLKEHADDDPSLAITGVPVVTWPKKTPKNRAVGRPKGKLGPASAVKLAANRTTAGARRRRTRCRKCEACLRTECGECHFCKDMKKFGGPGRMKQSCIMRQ
The experiment is described as follows: Histone lysine demethylase AlphaLISA assay, KDM2B. Conditions: in vitro enzyme, read-out: KDM2B IC50 (HDME Inhibition). As to the method:
as §1, §2, §3, §4

The target of a further experiment is T2, KDM6A (UTX) (Homo sapiens, UniProt O15550).
T2 construct: 919-1401; host or cells: E. coli
T2 sequence (O15550 919-1401): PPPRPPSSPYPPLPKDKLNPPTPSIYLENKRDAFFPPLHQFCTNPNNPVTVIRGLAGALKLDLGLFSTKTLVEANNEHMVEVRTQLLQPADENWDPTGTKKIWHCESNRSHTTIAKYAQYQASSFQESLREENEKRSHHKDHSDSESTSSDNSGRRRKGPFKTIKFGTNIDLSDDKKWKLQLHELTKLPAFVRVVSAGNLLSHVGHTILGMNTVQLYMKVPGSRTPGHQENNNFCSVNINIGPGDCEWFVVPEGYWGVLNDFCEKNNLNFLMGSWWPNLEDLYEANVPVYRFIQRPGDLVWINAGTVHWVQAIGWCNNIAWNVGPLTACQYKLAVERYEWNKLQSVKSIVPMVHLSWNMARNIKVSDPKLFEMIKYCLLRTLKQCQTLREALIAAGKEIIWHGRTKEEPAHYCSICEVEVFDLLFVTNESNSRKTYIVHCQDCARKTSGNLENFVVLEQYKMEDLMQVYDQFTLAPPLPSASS
The experiment is described as follows: Histone lysine demethylase AlphaLISA assay, KDM6A. Conditions: in vitro enzyme, read-out: KDM6A IC50 (HDME Inhibition). The protocol:
as §1, §2, §3, §4

Another experiment has as its target T3, KDM5B (PLU-1) (Homo sapiens, UniProt Q9UGL1).
T3 construct: 1-809; host or cells: E. coli
T3 sequence (Q9UGL1 1-809): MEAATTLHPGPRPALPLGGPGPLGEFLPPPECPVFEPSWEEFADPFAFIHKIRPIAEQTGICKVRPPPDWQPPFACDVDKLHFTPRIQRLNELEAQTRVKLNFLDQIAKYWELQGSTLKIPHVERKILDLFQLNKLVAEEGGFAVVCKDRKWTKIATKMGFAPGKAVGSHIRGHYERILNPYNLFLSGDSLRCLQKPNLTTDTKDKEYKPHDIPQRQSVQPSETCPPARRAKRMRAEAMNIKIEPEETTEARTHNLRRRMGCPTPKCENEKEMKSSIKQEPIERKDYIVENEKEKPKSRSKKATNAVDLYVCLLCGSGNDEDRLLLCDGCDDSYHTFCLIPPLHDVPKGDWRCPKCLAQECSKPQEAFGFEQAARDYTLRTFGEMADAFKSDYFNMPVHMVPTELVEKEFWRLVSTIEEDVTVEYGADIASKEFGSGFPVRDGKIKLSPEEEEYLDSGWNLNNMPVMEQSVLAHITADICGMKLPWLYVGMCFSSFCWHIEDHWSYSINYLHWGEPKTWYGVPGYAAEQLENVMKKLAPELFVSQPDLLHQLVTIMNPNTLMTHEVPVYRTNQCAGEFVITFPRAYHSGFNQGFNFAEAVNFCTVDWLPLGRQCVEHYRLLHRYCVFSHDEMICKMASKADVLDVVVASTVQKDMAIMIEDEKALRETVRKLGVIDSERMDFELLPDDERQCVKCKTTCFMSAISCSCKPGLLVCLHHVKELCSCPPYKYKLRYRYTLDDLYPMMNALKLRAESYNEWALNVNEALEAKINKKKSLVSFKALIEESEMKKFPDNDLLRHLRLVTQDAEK
The experiment is described as follows: Histone lysine demethylase AlphaLISA assay, KDM5B. Conditions: in vitro enzyme, read-out: KDM5B IC50 (HDME Inhibition). As to the method: as §1, §2, §3, §4

As usually defined, the IC50 is the point on the concentration scale where inhibition reaches its midpoint.

PHF8 (KDM7), sequence (Q9UPP1 whole entry): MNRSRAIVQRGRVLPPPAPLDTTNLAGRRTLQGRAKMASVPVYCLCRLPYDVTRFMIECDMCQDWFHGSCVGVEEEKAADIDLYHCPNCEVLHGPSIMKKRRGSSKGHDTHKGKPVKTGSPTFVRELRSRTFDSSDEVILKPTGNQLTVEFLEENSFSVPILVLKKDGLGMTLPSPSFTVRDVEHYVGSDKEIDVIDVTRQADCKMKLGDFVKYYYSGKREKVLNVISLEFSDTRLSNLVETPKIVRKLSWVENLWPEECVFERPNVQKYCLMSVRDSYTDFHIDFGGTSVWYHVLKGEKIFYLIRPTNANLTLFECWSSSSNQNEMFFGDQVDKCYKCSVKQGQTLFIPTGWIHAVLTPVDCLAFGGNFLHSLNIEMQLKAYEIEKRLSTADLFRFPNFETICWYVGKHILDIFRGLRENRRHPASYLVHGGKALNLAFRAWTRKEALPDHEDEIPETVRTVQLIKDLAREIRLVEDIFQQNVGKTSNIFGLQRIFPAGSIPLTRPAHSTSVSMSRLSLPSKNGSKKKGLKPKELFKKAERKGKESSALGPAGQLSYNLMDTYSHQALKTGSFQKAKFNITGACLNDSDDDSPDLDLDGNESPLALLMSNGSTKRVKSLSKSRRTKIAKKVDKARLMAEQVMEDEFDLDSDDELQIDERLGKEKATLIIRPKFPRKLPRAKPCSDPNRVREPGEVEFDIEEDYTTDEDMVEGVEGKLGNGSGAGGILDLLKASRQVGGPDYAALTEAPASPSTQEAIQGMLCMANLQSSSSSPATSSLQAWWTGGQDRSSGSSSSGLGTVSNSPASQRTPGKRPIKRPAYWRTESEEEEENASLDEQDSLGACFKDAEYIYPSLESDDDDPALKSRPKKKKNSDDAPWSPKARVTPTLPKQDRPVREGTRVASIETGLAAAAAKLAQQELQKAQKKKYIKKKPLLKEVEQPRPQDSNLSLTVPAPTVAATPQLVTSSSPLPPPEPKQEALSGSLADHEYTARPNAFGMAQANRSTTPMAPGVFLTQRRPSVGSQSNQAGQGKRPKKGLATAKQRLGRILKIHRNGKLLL

For the molecule `CC(C)C[C@H](NCc1cc(C(=O)O)ccn1)C(=O)NCC1CCS(=O)(=O)C1` (stereo partly drawn) [Compound 38, 2-({[(1S)-1-{[(1,1-dioxo-1-thiolan-3-yl)methyl]carbamoyl}-3-methylbutyl]amino}methyl)pyridine-4-carboxylic acid], the 50% inhibitory concentration (IC50) at PHF8 (KDM7) was 250 to 2500 nM; at KDM2B (FBXL10), 250 to 2500 nM; at KDM6A (UTX) it was greater than 2500 nM.
`CC(C)C[C@@H]1[C@@H](O)CC(C)N1Cc1cc(C(=O)O)ccn1` (stereo partly drawn) [Compound 59, 2-{[(2R,3S)-3-hydroxy-5-methyl-2-(2-methylpropyl)pyrrolidin-1-yl]methyl}pyridine-4-carboxylic acid]: the IC50 at PHF8 (KDM7), on KDM2B (FBXL10) and at KDM5B (PLU-1) was 250 to 2500 nM in each case.
With `O=C(O)c1ccnc(CNC2CCc3c(CCc4ccccc4)ccnc32)c1` (stereo not shown) [Compound 96, 2-({[4-(2-phenylethyl)-5H,6H,7H-cyclopenta[b]pyridin-7-yl]amino}methyl)pyri-dine-4-carboxylic acid], the IC50 at PHF8 (KDM7) and on KDM2B (FBXL10) was less than 250 nM throughout.
Consider `C=CCN(CC=C)C(=O)[C@@H](CCC(N)=O)NCc1cc(C(=O)O)ccn1` [Compound 25, 2-({[(1R)-1-[bis(prop-2-en-1-yl)carbamoyl]-3-carbamoylpropyl]amino}methyl)pyridine-4-carboxylic acid], for which the IC50 on PHF8 (KDM7), at KDM2B (FBXL10) and at KDM5B (PLU-1) was 250 to 2500 nM each time.
As for `C=CCN(CC=C)C(=O)[C@@H](CC(=O)NCC1CC1)NCc1cc(C(=O)O)ccn1` [Compound 18, 2-({[(1R)-1-[bis(prop-2-en-1-yl)carbamoyl]-2-[(cyclopropylmethyl)carbamoyl]ethyl]amino}methyl)pyridine-4-carboxylic acid], the IC50 on KDM2B (FBXL10) is 250 to 2500 nM; at KDM6A (UTX), greater than 2500 nM; on KDM5B (PLU-1), 250 to 2500 nM.
As for `O=C(O)c1ccnc(CN2CCCCC2CO)c1` (stereo not shown) [Compound 66, 2-{[2-(hydroxymethyl)piperidin-1-yl]methyl} pyridine-4-carboxylic acid], the results for the IC50 at PHF8 (KDM7), at KDM2B (FBXL10) and on KDM5B (PLU-1) were greater than 2500 nM, 250 to 2500 nM and greater than 2500 nM, respectively.
Take `C=CCN(CC=C)C(=O)[C@H](CC(=O)NCC1(CO)CC1)NCc1cc(C(=O)O)ccn1` [Compound 11, 2-({[(1S)-1-[bis(prop-2-en-1-yl)carbamoyl]-2-({[1-(hydroxymethyl)cyclo-propyl]methyl}carba-moyl)ethyl]amino}methyl)pyridine-4-carboxylic acid]: the concentration for half-maximal inhibition (IC50) on KDM2B (FBXL10) and on KDM5B (PLU-1) was 250 to 2500 nM each time.
In the case of `CCN1CCC[C@H](CNCc2cc(C(=O)O)ccn2)C1=O` [Compound 107, 2-[({[(3R)-1-ethyl-2-oxopiperidin-3-yl]methyl}amino)methyl]pyridine-4-carboxylic acid], the results for the IC50 on KDM2B (FBXL10), on KDM6A (UTX) and on KDM5B (PLU-1) were less than 250 nM, greater than 2500 nM and less than 250 nM, respectively.
Turning to `CC1(C)Cc2cccnc2C1NCc1cc(C(=O)O)ccn1` (stereo not shown) [Compound 102, 2-[({6,6-dimethyl-5H,6H,7H-cyclopenta[b]pyridin-7-yl}amino)methyl]pyri-dine-4-carboxylic acid], the IC50 at PHF8 (KDM7), at KDM2B (FBXL10) and on KDM5B (PLU-1) was 250 to 2500 nM throughout.
In the case of `CC(C)C[C@H](NCc1cc(C(=O)O)ccn1)C1CCCO1` (stereo partly drawn) [Compound 60, 2-({[(1S)-3-methyl-1-(oxolan-2-yl)butyl]amino}methyl) pyridine-4-carboxylic acid], the figures for the IC50 at KDM2B (FBXL10), at KDM6A (UTX) and on KDM5B (PLU-1) were greater than 2500 nM, greater than 2500 nM and less than 250 nM, respectively.
As to `COc1ccc(CCCN(CC(=O)N2CCCCC2)Cc2cc(C(=O)O)ccn2)cc1` [Compound 46, 2-({[3-(4-methoxyphenyl)propyl] [2-oxo-2-(piperidin-1-yl)ethyl]amino}methyl) pyridine-4-carboxylic acid], the IC50 on PHF8 (KDM7) and at KDM2B (FBXL10) was 250 to 2500 nM in each case.
On to `CN(C)CC1CCN(Cc2cc(C(=O)O)ccn2)Cc2nccn21` (stereo not shown) [Compound 54, 2-({5-[(dimethylamino)methyl]-5H,6H,7H,8H,9H-imidazo[1,2-a][1,4]diazepin-8-yl}methyl)pyridine-4-carboxylic acid], for which the IC50 at KDM2B (FBXL10) is greater than 2500 nM; at KDM5B (PLU-1) it was 250 to 2500 nM.
Consider `O=C(O)c1ccnc(CNCc2ccc3ncccc3c2)c1` [Compound 87, 2-{[(quinolin-6-ylmethyl)amino]methyl}pyridine-4-carboxylic acid], for which the IC50 at PHF8 (KDM7) was less than 250 nM; at KDM2B (FBXL10), 250 to 2500 nM; on KDM5B (PLU-1) it was less than 250 nM.
For the molecule `CCCC(NCC(=O)N1CCCCC1)c1cc(C(=O)O)ccn1` (stereo not shown) [Compound 45, 2-(1-{[2-oxo-2-(piperidin-1-yl)ethyl]amino}butyl) pyridine-4-carboxylic acid], the IC50 on PHF8 (KDM7) and on KDM2B (FBXL10) was 250 to 2500 nM each time.
As to `O=C(O)c1ccnc(CNCC(=O)N2CCCCC2)n1` [Compound 23, 2-({[2-oxo-2-(piperidin-1-yl)ethyl]amino}methyl) pyrimidine-4-carboxylic acid], the IC50 on KDM2B (FBXL10) is 250 to 2500 nM; at KDM5B (PLU-1), greater than 2500 nM.
As to `O=C(O)c1ccnc(CNCc2cncc3ccccc23)c1` [Compound 85, 2-{[(isoquinolin-4-ylmethyl)amino]methyl}pyridine-4-carboxylic acid], the IC50 at KDM2B (FBXL10) was less than 250 nM; at KDM6A (UTX), greater than 2500 nM.
For the molecule `C=CCN(CC=C)C(=O)[C@@H](CC(=O)NCCCC)NCc1cc(C(=O)O)ccn1` [Compound 24, 2-({[(1R)-1-[bis(prop-2-en-1-yl)carbamoyl]-2-(butylcarbamoyl)ethyl]amino}methyl)pyridine-4-carboxylic acid], the IC50 was 250 to 2500 nM at KDM2B (FBXL10), greater than 2500 nM at KDM6A (UTX) and greater than 2500 nM at KDM5B (PLU-1).
In the case of `CC(c1cc(C(=O)O)ccn1)N(C)CC(=O)N1CCCCC1` (stereo not shown) [Compound 47, 2-(1-{methyl[2-oxo-2-(piperidin-1-yl)ethyl]amino}ethyl) pyridine-4-carboxylic acid], the IC50 is 250 to 2500 nM on KDM2B (FBXL10) and greater than 2500 nM at KDM5B (PLU-1).
On to `O=C(O)c1ccnc(CN2CCn3ccnc3C2)c1` [Compound 52, 2-{5H,6H,7H,8H-imidazo[1,2-a]pyrazin-7-ylmethyl}pyridine-4-carboxylic acid], for which the IC50 was greater than 2500 nM on KDM2B (FBXL10), greater than 2500 nM at KDM6A (UTX) and 250 to 2500 nM at KDM5B (PLU-1).
For `CCc1ccnc2c1CCC2NCc1cc(C(=O)O)ccn1` (stereo not shown) [Compound 97, 2-[({4-ethyl-5H,6H,7H-cyclopenta[b]pyridin-7-yl}amino)methyl]pyri-dine-4-carboxylic acid], the IC50 at PHF8 (KDM7), at KDM2B (FBXL10) and on KDM5B (PLU-1) was less than 250 nM each time.

The values are drawn from US20170369444A1, “INHIBITORS OF HISTONE DEMETHYLASES” (Gilead Sciences, Inc., priority 2014, published 2017).
